Data on five compounds can be found in US20230128412A1, “METHODS FOR ENHANCING RECOMBINANT ADENO-[…] YIELD” (Ultragenyx Pharmaceutical Inc., priority 2020, published 2023).

Common to all, as to type: cell-based
The test system of test [1] is HEK293 cells (rAAV8-OTC). Description: Effect of additional compounds on rAAV production with HEK293 cells, 24 deep-well plates. The following applies: for rAAV titers (summary statement): HEK293 cells. From the text:
In this example, the effect of compounds other than niacinamide on rAAV production in HEK293 cells was examined. The compounds analyzed in this example included niacin, methyl nicotinate, myo-inositol, pantothenic acid, pyridoxine, choline, thiamine, glucosamine, caffeine, n-acetyl glucosamine, and thymidine.
The experiment was run in 24 deep-well plates using the same cells as described in Example 5 under similar transfection and culture conditions. The concentrations of each compound tested were 1 mM, 3 mM, and 9 mM. […] None of the other compounds tested provided a significant benefit to rAAV titer at any of the three concentrations tested.

The test system of test [2] is HeLa producer cells. Description: Effect of niacinamide concentration on rAAV production, HeLa producer cell lines, 24 deep-well plate. The following applies: for normalized volumetric rAAV titer: Clade E and F rAAV. As to the method: (§1) In this example, the effect of various concentrations of niacinamide ranging from 0.1 mM to 40 mM on rAAV production was tested in a variety HeLa producer cell lines. The experiment was run in a 24 deep-well plate culture system with a 3 mL working volume, a seeding density of 0.2×10^6 cells in cell culture production medium, and an Ad5 multiplicity of infection (MOI) of 200 vp/cell. […] The capsid serotypes included in this analysis were AAV8, AAV9, rh10, and hu37.

The test system of test [3] is HeLa producer cell line (AAVrh10-FIX). Description: Effect of vessel scale (24-DW vs 100 mL shake flask) with niacinamide on rAAV production. Particulars: scale removed as a factor; all niacinamide concentrations. As to the method: In this example, the effect of scale using two common vessels (3 mL-deep well (“24-DW”) and 100 mL shake flask (“Flasks”)) with niacinamide on rAAV production was tested. The analysis was conducted using a HeLa producer cell line capable of producing a Clade E rAAV encoding a Factor IX transgene (AAVrh10-FIX). FIG. 3 depicts a bar graph showing rAAV titer (GC/mL) at varying niacinamide concentrations at the different scales. […] The scale and interaction factors were insignificant (p=0.3915 and p=0.1353 respectively).

For test [4], the system named is HeLa clones (AAVrh10-FIX, AAV8-G6Pase, AAVhu37-FVIII). Description: Effect of niacinamide on rAAV production with Clade E HeLa clones. The following applies: between 1 mM and 5 mM niacinamide; all four clones. As to the method:
as §1
Four different HeLa clones were tested using the conditions described in Example 1. FIG. 4A-D show the rAAV titer (GC/mL) per varying niacinamide concentrations for Clone 1 (AAVrh10-FIX) follow-up supernatant, clone 2 (AAV8-G6Pase) supernatant, Clone 3 (AAV8-G6Pase) wide range with no supplement, and Clone 4 (AAVhu37-FVIII) wide range no supplement suspension (i.e., Triton-lysed sample), respectively.

The subject of test [5] is HeLa producer cell line clones (AAV9-ATP7B). Nature of the test: Effect of niacinamide on rAAV production with Clade F HeLa clones, 2 L bioreactor. The following applies: 3 mM niacinamide, both clones. As to the method: In this example, the effect of 3 mM niacinamide on two HeLa producer cell line clones expressing recombinant Clade F AAV encoding a truncated ATP7B transgene (AAV9-ATP7B) was examined in a 2 L bioreactor.

Test [6] relates to HEK293 cells (rAAV8-OTC). Nature of the test: Effect of niacinamide concentration on rAAV production with HEK293 cells. As to the method:
In this example, the effect of various concentrations of niacinamide ranging from 0.03 mM to 30 mM on rAAV production was tested with HEK293 cells. The experiment was run in 30 mL flasks using a transfection density of 1.3×10^6 to 2.0×10^6 cells/mL. The HEK293 cells used in this experiment were transfected with plasmids enabling the production of rAAV8 encoding an ornithine transcarbamylase (rAAV8-OTC).

Where [7] appears, read: niacinamide between 1 mM and 10 mM.

For the compound `C[N+](C)(C)CCO` [choline], the increase in titer in test [1] (3 mM compound) was 65%. Besides, the “rAAV titers (summary statement)” value in test [1] is “can boost rAAV titers”.
In test [1] (3 mM compound), `COC(=O)c1cccnc1` [methyl nicotinate] registered an increase in titer of 42%. The “rAAV titers (summary statement)” value in test [1] is “can boost rAAV titers”.
As for `OC1C(O)C(O)C(O)C(O)C1O` (centres unmarked) [myo-inositol], the increase in titer result in test [1] (3 mM compound) and in test [1] (9 mM compound) was “approximately 20%” in each case. Besides, the “rAAV titers (summary statement)” value in test [1] is listed as “can boost rAAV titers”.
Consider `O=C(O)c1cccnc1` [niacin], for which the increase in titer in test [1] (1 mM compound) amounted to 20%. The “rAAV titers (summary statement)” value in test [1] is “can boost rAAV titers”.
Take `NC(=O)c1cccnc1` [niacinamide]: in test [2] (fit of normalized titer data points, FIG. 2), the “niacinamide concentration of predicted maximum rAAV titer (3rd-order polynomial fit)” value is reported as 5 mM. Moreover, the “normalized volumetric rAAV titer” value is on record as “Increases in rAAV titer” in test [2] (niacinamide 0.1 mM to 10 mM, relative to no niacinamide) and “most significant increases” in test [2] (setting [7]). The “normalized volumetric rAAV titer (GC/mL), 3rd-order polynomial fit” value in test [2] (setting [7]) is reported as “Significant increases in rAAV titer”. Further, the “rAAV titer, Dunnett's Test” value in test [3] is listed as “significance at all concentrations”. For the same compound, in test [4], the “rAAV titer (GC/mL)” value is “titer increase”. Further, the rAAV titer result in test [5] is reported as “significant titer increase”; in test [6] (0.3 mM niacinamide, 30 mL flasks) it was “increases in titer”; in test [6] (3 mM niacinamide, 30 mL flasks) it was “increases in titer”; in test [6] (repeat run at 2 L bioreactor scale (data not shown)), “increase in titer”. In addition, the “level of benefit to rAAV titer compared with the other compounds” value in test [1] (niacinamide versus the 11 compounds of Example 6) was “substantially and surprisingly superior to the other 11 compounds examined”.
